Assays:
Assay in all cases: relative viability (nuclei count vs DMSO), 5 days (fraction); higher = more cells survive
Afatinib + Pictilisib = compound: CN(C)C/C=C/C(=O)Nc1cc2c(Nc3ccc(F)c(Cl)c3)ncnc2cc1O[C@H]1CCOC1 [Afatinib] + CS(=O)(=O)N1CCN(Cc2cc3nc(-c4cccc5[nH]ncc45)nc(N4CCOCC4)c3s2)CC1 [Pictilisib] (partner 1 µM)
How it was run: (§1)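 Lung cancer cell lines were seeded in 1536-well plates and dosed by pin tool the next day, with either a single drug or a fixed anchor-drug dose combined with five library-drug doses (not always all listed) spaced in √10 steps. Five days later, one step fixed the cells and stained their nuclei (final 0.05% Triton X-100, 1% formaldehyde, 1 ug/ml Hoechst), and nuclei were counted on 4× images. Relative viability is the nuclei count in treated wells divided by the count in vehicle wells, and each value is the median of duplicate plates.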

Afatinib + Linsitinib = compound: CN(C)C/C=C/C(=O)Nc1cc2c(Nc3ccc(F)c(Cl)c3)ncnc2cc1O[C@H]1CCOC1 [Afatinib] + C[C@]1(O)C[C@@H](c2nc(-c3ccc4ccc(-c5ccccc5)nc4c3)c3c(N)nccn32)C1 [Linsitinib] (partner 1 µM)
How it was run: as §1

Afatinib + Alpelisib = compound: CN(C)C/C=C/C(=O)Nc1cc2c(Nc3ccc(F)c(Cl)c3)ncnc2cc1O[C@H]1CCOC1 [Afatinib] + Cc1nc(NC(=O)N2CCC[C@H]2C(N)=O)sc1-c1ccnc(C(C)(C)C(F)(F)F)c1 [Alpelisib] (partner 2 µM)
How it was run: as §1

Afatinib + Decitabine = compound: CN(C)C/C=C/C(=O)Nc1cc2c(Nc3ccc(F)c(Cl)c3)ncnc2cc1O[C@H]1CCOC1 [Afatinib] + Nc1ncn([C@H]2C[C@H](O)[C@@H](CO)O2)c(=O)n1 [Decitabine] (partner 2 µM)
How it was run: as §1

Row | Cell Line | relative viability (Afatinib + Pictilisib; first compound 0.005 µM) | relative viability (Afatinib + Pictilisib; first compound 0.01581 µM) | relative viability (Afatinib + Pictilisib; first compound 0.05 µM) | relative viability (Afatinib + Pictilisib; first compound 0.1581 µM) | relative viability (Afatinib + Pictilisib; first compound 0.5 µM) | relative viability (Afatinib + Linsitinib; first compound 0.005 µM) | relative viability (Afatinib + Linsitinib; first compound 0.01581 µM) | relative viability (Afatinib + Linsitinib; first compound 0.05 µM) | relative viability (Afatinib + Linsitinib; first compound 0.1581 µM) | relative viability (Afatinib + Linsitinib; first compound 0.5 µM) | relative viability (Afatinib + Alpelisib; first compound 0.005 µM) | relative viability (Afatinib + Alpelisib; first compound 0.01581 µM) | relative viability (Afatinib + Alpelisib; first compound 0.05 µM) | relative viability (Afatinib + Alpelisib; first compound 0.1581 µM) | relative viability (Afatinib + Alpelisib; first compound 0.5 µM) | relative viability (Afatinib + Decitabine; first compound 0.005 µM) | relative viability (Afatinib + Decitabine; first compound 0.01581 µM) | relative viability (Afatinib + Decitabine; first compound 0.05 µM) | relative viability (Afatinib + Decitabine; first compound 0.1581 µM) | relative viability (Afatinib + Decitabine; first compound 0.5 µM)
1 | NCI-H1792 | 0.303 | 0.325 | 0.255 | 0.241 | 0.243 | 0.533 | 0.616 | 0.497 | 0.533 | 0.484 | 0.64 | 0.732 | 0.722 | 0.674 | 0.668 | 0.505 | 0.592 | 0.489 | 0.522 | 0.513
2 | NCI-H1355 | 0.39 | 0.467 | 0.482 | 0.36 | 0.21 | 0.744 | 0.828 | 0.728 | 0.586 | 0.662 | 0.782 | 0.89 | 0.918 | 0.656 | 0.645 | 0.377 | 0.332 | 0.341 | 0.356 | 0.332
3 | SW 1573 | 0.547 | 0.406 | 0.585 | 0.484 | 0.484 | 0.773 | 0.865 | 0.649 | 0.731 | 0.703 | 0.778 | 0.805 | 0.805 | 0.811 | 0.668 | 0.434 | 0.422 | 0.542 | 0.497 | 0.528
4 | A549 | 0.499 | 0.416 | 0.478 | 0.389 | 0.442 | 0.608 | 0.435 | 0.533 | 0.433 | 0.467 | 0.629 | 0.632 | 0.631 | 0.61 | 0.642 | 0.28 | 0.272 | 0.278 | 0.232 | 0.299
5 | NCI-H2347 | 0.737 | 0.665 | 0.672 | 0.596 | 0.841 | 1.04 | 0.933 | 1.03 | 1.08 | 1.03 | 1.11 | 0.979 | 1.1 | 1.1 | 0.889 | 0.602 | 0.654 | 0.626 | 0.592 | 0.592
6 | LCLC-97TM1 | 0.27 | 0.182 | 0.182 | 0.144 | 0.15 | 0.176 | 0.179 | 0.167 | 0.156 | 0.205 | 0.175 | 0.286 | 0.313 | 0.184 | 0.211 | 0.262 | 0.17 | 0.234 | 0.273 | 0.255
7 | EMC-BAC-2 | 0.516 | 0.531 | 0.544 | 0.529 | 0.496 | 0.747 | 0.684 | 0.697 | 0.59 | 0.572 | 0.734 | 0.635 | 0.635 | 0.603 | 0.634 | 0.968 | 0.924 | 0.98 | 0.901 | 1.02
8 | NCI-H1975 | 0.293 | 0.185 | 0.164 | 0.17 | 0.0947 | 0.901 | 1.1 | 0.794 | 0.261 | 0.217 | 0.628 | 0.511 | 0.43 | 0.197 | 0.206 | 0.395 | 0.283 | 0.391 | 0.264 | 0.373
9 | BEN | 0.563 | 0.532 | 0.565 | 0.601 | 0.589 | 0.988 | 0.875 | 1.01 | 0.895 | 0.962 | 1.25 | 1.07 | 1.18 | 1.06 | 1.1 | 0.727 | 0.707 | 0.666 | 0.736 | 0.919
10 | NCI-H23 | 0.543 | 0.52 | 0.501 | 0.424 | 0.398 | 0.601 | 0.628 | 0.584 | 0.523 | 0.486 | 0.771 | 0.735 | 0.725 | 0.636 | 0.561 | 0.327 | 0.314 | 0.278 | 0.317 | 0.309
11 | NCI-H520 | 0.353 | 0.304 | 0.208 | 0.232 | 0.233 | 0.983 | 0.998 | 0.992 | 0.931 | 0.802 | 1.07 | 0.903 | 1.02 | 1.01 | 0.872 | 0.539 | 0.454 | 0.45 | 0.483 | 0.413
12 | EPLC-272H | 0.342 | 0.301 | 0.297 | 0.324 | 0.348 | 1.14 | 0.926 | 0.832 | 0.776 | 0.736 | 0.775 | 0.818 | 0.737 | 0.691 | 0.731 | 0.355 | 0.328 | 0.359 | 0.309 | 0.348
13 | LCLC-103H | 0.621 | 0.572 | 0.642 | 0.62 | 0.482 | 1.09 | 0.943 | 1.02 | 0.99 | 0.99 | 0.806 | 1.09 | 0.997 | 0.939 | 1 | 0.714 | 0.774 | 0.727 | 0.704 | 0.718
14 | NCI-H2405 | 0.445 | 0.47 | 0.611 | 0.473 | 0.57 | 0.808 | 0.875 | 0.963 | 0.836 | 0.906 | 0.703 | 0.804 | 0.875 | 0.708 | 0.913 | 0.716 | 0.764 | 0.703 | 0.642 | 0.656
15 | HCC-15 | 0.806 | 0.72 | 0.647 | 0.714 | 0.66 | 0.845 | 0.894 | 0.849 | 0.854 | 0.788 | 0.855 | 0.816 | 0.902 | 0.855 | 0.889 | 0.75 | 0.622 | 0.625 | 0.594 | 0.645
16 | PC-3 [JPC-3] | 0.429 | 0.323 | 0.339 | 0.3 | 0.355 | 0.593 | 0.451 | 0.439 | 0.461 | 0.392 | 0.49 | 0.392 | 0.377 | 0.362 | 0.354 | 0.564 | 0.52 | 0.553 | 0.449 | 0.492
